# Test results from article PMC8179515 (Chemical Science, 2021).
# Tests used:
# [1] = target: Aβ1-42 oligomers (Aβo) (Homo sapiens, UniProt P05067); assay type: binding
# [2] = test system: albumin; settings: cited from earlier work
# [3] = test system: monomeric amyloid-β; settings: cited from earlier work
# Chain of Aβ1-42 oligomers (Aβo) (P05067 672-713): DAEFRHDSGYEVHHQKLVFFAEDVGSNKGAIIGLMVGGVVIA
molecule,measurement,setting,value
C=C(c1ccc(C(=O)O)cc1)c1cc2c(cc1C)C(C)(C)CCC2(C)C [Bexarotene],Highest% STD,[1],14.60%
CC(C(=O)O)c1ccc(-c2ccccc2)c(F)c1 (stereo not drawn) [flurbiprofen],bound to albumin,[2],> 99%
solanezumab,affinity for central epitope KLVFFAED,[3],picomolar affinity
